Like-named read-outs stand apart in the source and are kept apart here. Each block holds one molecule with its values, some of them ahead of it.
Key:
[1] = test system: MALME-3M cells and MALME-3 control cells; test: Spermidine competition / percent viability with compound A; type: cell-based
Protocol: Aminoguanidine (AG) at 1 mM was determined to be non-toxic and was incubated with cells for 24 h prior to compound addition. Control represents the untreated cells. All experiments were performed in triplicate. Spermidine (Spd, 100 μM) was non-toxic to both cell lines. […] Compound A is a valid polyamine transport probe.

[2] = test system: amine oxidases; test: Metabolic stability to amine oxidases; type: in vitro ADME, calf; conditions: unmethylated compound judged without the protective aminoguanidine (AG)
Description: (§1) Table 1 compares unmethylated Compound A (containing primary amine termini), and N-methylated Compound A (containing N-methyl termini). […] This is due to the presence of the terminal N-methyl groups in A.

[3] = test system: PanO2 derived tumors; test: Histology (Ki67, cleaved caspase) of PanO2 derived tumors; type: in vivo; conditions: PanO2 derived tumors in C57Bl/6 mice
Description: FIG. 14 illustrates histological stained images of Ki67, a proliferation marker, and cleaved caspase in the presence of DFMO or DFMO+ the trimer44NMe PTI

[4] = test system: DFMO-treated cells; test: Polyamine transport inhibitor assay 2: PTI blocks uptake of rescuing spermidine into DFMO-treated cells; type: cell-based
Protocol: FIG. 6A is a diagram showing an assay wherein the uptake of rescuing dose of spermidine into DFMO-treated cells is blocked by a PTI (GW 5074).
(§2) DFMO was dosed to give 50% relative viability versus an untreated control, i.e. DFMO is dosed at its IC50 value. Exogenous spermidine (Spd, 1 μM) is added to the DFMO treated cells and provided significant rescue of these cells to >80% viability depending upon the cell line. A successful PTI was able to block the entry of the spermidine rescuing agent into DFMO treated cells and result in a cell viability near the DFMO control (i.e. 50% viability). The inventors identified the following cell viabilities: DFMO only (50%), Spd only (100%), PTI (>90%), DFMO+Spd (>80%), DFMO+Spd+PTI (50%). The PTI provides a dose dependent lowering of cell viability in the presence of DFMO and a rescuing dose of spermidine. […] Identifying cells that respond to exogenous spermidine allow this assay to be possible and the c-myc and ATP13A3 biomarkers help predict these outcomes as well as the Vmax measurements for ^3H Spd import.

[5] = test system: MALME-3 cells; test: Cytotoxicity IC50 in matched control cells; type: cell-based; conditions: in the presence of aminoguanidine (1 mM)
[6] = test system: CHO-MG* cells; test: PTS targeting: cytotoxicity IC50 in PTS-deficient cells; type: cell-based
Description: as §1

[7] = test system: CHO cells; test: PTS targeting: cytotoxicity IC50 in PTS-active cells; type: cell-based
Description: as §1

[8] = test system: MALME-3M cells; test: Cytotoxicity IC50 in metastatic melanoma cells; type: cell-based
Description: (§3) Graphical bars extending to the right of the 0 growth percent line indicates growth inhibition by compound A of those specific cell lines.

[9] = test system: melanoma cell lines; test: NCI 60-cancer cell screen; type: cell-based; conditions: for sensitivity of MALME-3M in NCI 60-cancer cell screen: MALME-3M (low Cav-1 and high Cav-2)
Description: as §3

[10] = test system: L3.6pl cells; test: Assay 2 with GW5074 PTI in L3.6pl cells; type: cell-based, human; conditions: 500 cells/well, 48 h at 37° C., 250 μM aminoguanidine
Protocol: as §2

[11] = test system: L3.6pl pancreatic tumor; test: Human L3.6pl pancreatic tumor in nude mice, combination with 1% DFMO; type: in vivo; conditions: GW5074 1 mg/kg i.p. 5 days per week for 2 weeks, trimer44NMe equimolar (1.8 mg/kg), 1% DFMO in drinking water
Protocol: The extension of these findings is that cells which have high c-myc and ATP13A3 expression will be sensitive to the therapy described herein. These therapies were evaluated in vivo.
The first set of experiments was in nude mice (immune compromised) using human L3.6pl pancreatic cancer cells which have high ATP13A3 and high c-myc expression and high Vmax. […] Note TTI′ in FIGS. 12 and 13 refer to the polyamine-based trimer44NMe PTI compound.
0.5×10^6 L3.6pl tumor cells were injected into the pancreas of nude mice and allowed to grow for 1 week. 1% DFMO was administered in the drinking water (changed weekly) for 2 weeks. […] Mice were collected and pancreatic tissue/tumor, with spleen attached, was weighed.

[12] = test system: L3.6pl, Panc1, CHO and PanO2 cells; test: Cell line sensitivity to DFMO and spermidine rescue challenge; type: cell-based
[13] = test system: BxPC-3 pancreatic cancer cells; test: Western blot of ATP13A3 and Cav-1 protein levels with DFMO; type: cell-based, human; conditions: 72 h incubation at 37° C.
Protocol: (§4) FIGS. 9A-B provide graphical illustrations of the modulation of ATP13A3 and Cav-1, respectively, by DFMO and DFMO+Spermidine in L3.6pl human pancreatic cancer cells after 72 h incubation at 37° C. In FIG. 9A ATP13A3 protein levels after 72 h incubation at 37° C. are shown in L3.6pl (top) and Bx-PC3 (bottom) pancreatic cancer cells in the presence of DFMO or DFMO+Spd as analyzed by Western blot. Expression was normalized using β-actin levels. […] Note an increase in Cav-1 levels would stabilize caveolae at the cell surface and reduce the uptake of polyamines via a caveolin dependent pathway. A decrease in Cav-1 levels would increase polyamine import.

[14] = test system: L3.6pl pancreatic cancer cells; test: as above; type: cell-based, human; conditions: 72 h incubation at 37° C.
Protocol: as §4

[15] = test system: L3.6pl cells; test: DFMO 48 h IC50 in L3.6pl cells; type: cell-based, human
Protocol: FIG. 19B provides a graphical illustration of the effect of scrambled siRNA vs. ATP13A3 siRNA on relative L3.6pl cell viability % when challenged with a 48 h IC50 dose of DFMO (8 mM) and a rescuing dose of Spd (1 μM).
FIG. 20B provides a graphical illustration of the effect of scrambled siRNA vs. ATP13A3 siRNA on relative L3.6pl cell viability % when challenged with a 48 h IC50 dose of DFMO (8 mM) and a rescuing dose of Spd (1 μM).

[16] = with aminoguanidine (AG), read-out: CHO-MG* IC50 w/ AG
[17] = without aminoguanidine (AG), read-out: CHO-MG* IC50 w/o AG
[18] = with aminoguanidine (AG), read-out: CHO IC50 w/ AG
[19] = without aminoguanidine (AG), read-out: CHO IC50 w/o AG
[20] = in the presence of aminoguanidine (1 mM)
[21] = MALME-3M, 96 h, read-out: 96 h IC50

Molecule: N=C(N)NN [Aminoguanidine, aminoguanidine]
toxicity to cells ([1]; 1 mM, incubated with cells for 24 h prior to compound addition): non-toxic

metabolic stability to amine oxidases [2]: enhanced stability
Molecule: CNCCCCNCCCCNCc1cc(CNCCCCNCCCCNC)cc(CNCCCCNCCCCNC)c1 [Compound 6b]
proliferation (Ki67 histological stain) [3]: reduced proliferation | cleaved caspase staining (apoptosis) ([3]; PTI by itself): apoptosis is occurring | effectiveness as PTI agent in vitro ([4]; in vitro): effective

Molecule: NCCCCNCCCCNCc1ccc(CNCCCCNCCCCN)c2ccccc12 [Compound A w/o Me]
IC50 [5]: 1.21 µM | metabolic stability to amine oxidases [2]: less selective and less metabolically stable | IC50 [6, 16]: > 100 µM | IC50 [6, 17]: 52.1 µM | IC50 ratio w/ AG (CHO-MG*/CHO) ([7]; with aminoguanidine (AG)): >4545 | IC50 [7, 18]: 0.022 µM | IC50 ratio w/o AG (CHO-MG*/CHO) ([7]; without aminoguanidine (AG)): 9.5 | IC50 [7, 19]: 5.5 µM | IC50 ratio (MALME-3/MALME-3M) [8, 20]: 71 | IC50 ([8]; in the presence of aminoguanidine (1 mM), read-out: MALME-3M IC50): 0.018 µM

metabolic stability to amine oxidases [2]: metabolically stable
Molecule: CNCCCCNCCCCNCc1ccc(CNCCCCNCCCCNC)c2ccccc12 [Compound A]
IC50 [5]: 0.82 µM | IC50 [6, 16]: > 100 µM | IC50 [6, 17]: > 100 µM | CHO-MG*/CHO IC50 ratio (selectivity for CHO cells with active PTS) ([7]; summary bound, also when AG is removed): > 2200 | IC50 ratio w/ AG (CHO-MG*/CHO) ([7]; with aminoguanidine (AG)): >2272 | IC50 [7, 18]: 0.044 µM | IC50 ratio w/o AG (CHO-MG*/CHO) ([7]; without aminoguanidine (AG)): >2564 | IC50 [7, 19]: 0.039 µM | IC50 [8, 21]: 0.014 µM | IC50 ratio (MALME-3/MALME-3M) [8, 20]: 59 | competition with spermidine for cell entry (percent viability) ([1]; 96 h at 37 degrees Celsius, 0.02 μM (MALME-3M cells), 0.8 μM (MALME-3 control cells)): competes with Spd for cell entry | sensitivity of MALME-3M in NCI 60-cancer cell screen ([9]; 10 μM): most sensitive cell line | growth of cancer cell lines in NCI 60-cancer cell screen ([9]; 10 μM, MALME-3M, M14, MDA-MB-435, SK-MEL2, SK-MEL-28, SK-MEL-5, UACC-257, UACC-62): decreased growth of cancer cell lines | sensitivity of LOX IMVI melanoma cell line ([9]; LOX IMVI (high Cav-1, low Cav-2)): most resistant melanoma cell line

Molecule: CNCCCCNCCCCNCc1c2ccccc2c(CNCCCCNCCCCNC)c2ccccc12 [Compound B]
IC50 [8, 21]: 0.062 µM | sensitivity of MALME-3M in NCI 60-cancer cell screen ([9]; 10 μM): most sensitive cell line

Molecule: O=C1Nc2ccc(I)cc2/C1=C/c1cc(Br)c(O)c(Br)c1 [GW5074]
effectiveness against L3.6pl cells ([10]; in combination with DFMO): effective | reduction in tumor size [11]: statistically significant reduction

IC50 [15]: 8000 µM
Molecule: difluoromethylornithine [DFMO]
effectiveness against L3.6pl cells ([10]; DFMO alone): effective | proliferation (Ki67 histological stain) [3]: reduced proliferation | IC50 [12]: < 5000 µM | relative ATP13A3 expression (normalized using β-actin) ([13]; Bx-PC3, 48 h IC50 DFMO dose (e.g., 8 mM)): significant increase | levels of Cav-1 ([13]; BxPC-3, in the presence of DFMO): not dramatically changed | relative ATP13A3 expression (normalized using β-actin) ([14]; 48 h IC50 DFMO dose (e.g., 8 mM)): significant increase | levels of Cav-1 ([14]; in the presence of DFMO): not dramatically changed | cell viability ([4]; DFMO dosed at its IC50, Spd 1 μM, PTI not above its IC10, relative to untreated control): 50%
